How the values were obtained:
newborn mouse calvaria = assay: Histological analysis (toluidine blue) of chondrogenesis in newborn mouse calvarial organ cultures; format: cell-based; conditions: 200 nM, 7 days, FIG. 1a, at least 3 sets of replicate experiments
Description: (§1) All chemicals were from Sigma-Aldrich. Primers for RT-PCR were from Applied Biosystems. The isolation of calvaria was essentially performed as described previously (Garrett, 2003; Garret et al., 2003). The calvaria were cultured in Biggers, Gwatkins, Judah medium supplemented with 1 mg/mL of bovine serum albumin (Cohn fraction V), 100 U/mL each of penicillin/streptomycin, and 0.292 mg/mL of glutaimine. On Day 1, the calvaria were treated with CDDO-Im or CDDO-EA. On Day 4, the medium was replaced with fresh medium, again containing either CDDO-Im or CDDO-EA. On Day 7, the calvaria were collected and either stored at −80° C. for further RNA analysis or fixed in 10% buffered formalin for 24 h and transferred to 80% ethanol for histological analysis.
(§2) After fixation for 24 h, the calvaria were decalcified in EDTA, embedded in paraffin, and cut into 4 μm sections. The sections were stained either with modified hematoxylin and eosin or with toluidine blue (1% in 70% ethanol for 20 min, followed by destaining in 70%, 90%, and 100% ethanol for 15 seconds), placed in xylene twice, and then mounted (Garret, 2003). Procedures for immunofluroescence were performed essentially as previously described (Medici et al., 2010). […]

BMPRII = assay: Quantitative RT-PCR analysis on calvaria: BMPRII; format: cell-based, mouse; conditions: 7 days of culture, normalized to control = 1.00
Description: as §1
(§3) After 7 days of culture, RNA was isolated from the calvaria and quantitative RT-PCR analysis was performed for more than 15 different markers including: SOX9 (a transcription factor specific for cartilage), collagen type II (alpha 1), all three isoforms of TGF-β, BMPs 2 and 4, BMP receptor II, Smads 3, 4, 6, and 7, tissue inhibitors of metalloproteinases (TIMP-1 and TIMP-2), and matrix metalloproteinase-9 (MMP-9). […] Both triterpenoids are strong inhibitors of the expression of MMP-9; CDDO-EA (200 nM), caused almost 80% inhibition of the expression of this metalloproteinase, which is known to be involved in the degradation of cartilage (Shinoda et al., 2008).

Smad4 = assay: Quantitative RT-PCR analysis on calvaria: Smad4; format: cell-based, mouse; conditions: 7 days of culture, normalized to control = 1.00
Description: as §1, §3

Smad7 = assay: Quantitative RT-PCR analysis on calvaria: Smad7; format: cell-based, mouse; conditions: 7 days of culture, normalized to control = 1.00
Description: as §1, §3

COL2A1 = assay: Western blot of chondrocyte marker COL2A1 in bone marrow-derived MSCs; format: cell-based, human; conditions: 100 nM for 7 days; MSCs in chondrogenic culture medium; not detectable in control
Description: (§4) Human bone marrow-derived stromal cells (ScienCell Research Laboratories), which contain a population of responsive mesenchymal stem cells, were grown in mesenchymal stem cell medium (ScienCell Research Laboratories). MSCs were serum-starved 24 hours prior to all experimental conditions. The synthesis of the synthetic triterpenoids, CDDO-Im and CDDO-EA, have been previously described (Sporn et al., 2011).
(§5) For directed chondrocytic differentiation, MSCs were grown in StemPro chondrogenic culture medium (Invitrogen) prepared by the technique of Kassem (2004), which is incorporated herein by reference. See also Medici et al. (2010), which is also incorporated herein by reference. CDDO-Im and CDDO-EA were added to the cultures at a concentration of 100 nM for 7 days. Western blot analysis was performed using the following antibodies at concentrations (and using protocols) recommended by the respective manufacturers: SOX9, COL2A1 (Santa Cruz Biotechnology), Aggrecan (Abcam), β-actin (Sigma-Aldrich). β-actin was used as a loading control. HRP-conjugated IgG TrueBlot reagents (eBioscience) were used at a dilution of 1:1000.

TGF-β2 = assay: Quantitative RT-PCR analysis on calvaria: TGF-β2; format: cell-based, mouse; conditions: 7 days of culture, normalized to control = 1.00
Description: as §1, §3

Smad6 = assay: Quantitative RT-PCR analysis on calvaria: Smad6; format: cell-based, mouse; conditions: 7 days of culture, normalized to control = 1.00
Description: as §1, §3

MMP-9 = assay: Quantitative RT-PCR analysis on calvaria: MMP-9; format: cell-based, mouse; conditions: 7 days of culture, normalized to control = 1.00
Description: as §1, §3

Smad3 = assay: Quantitative RT-PCR analysis on calvaria: Smad3; format: cell-based, mouse; conditions: 7 days of culture, normalized to control = 1.00
Description: as §1, §3

Col II alpha1 = assay: Quantitative RT-PCR analysis on calvaria: Col II alpha1; format: cell-based, mouse; conditions: 7 days of culture, normalized to control = 1.00
Description: as §1, §3

Aggrecan = assay: Western blot of chondrocyte marker Aggrecan in bone marrow-derived MSCs; format: cell-based, human; conditions: 100 nM for 7 days; MSCs in chondrogenic culture medium; not detectable in control
Description: as §4, §5

TGF-β1 = assay: Quantitative RT-PCR analysis on calvaria: TGF-β1; format: cell-based, mouse; conditions: 7 days of culture, normalized to control = 1.00
Description: as §1, §3

BMP-4 = assay: Quantitative RT-PCR analysis on calvaria: BMP-4; format: cell-based, mouse; conditions: 7 days of culture, normalized to control = 1.00
Description: as §1, §3

SOX-9 = assay: Quantitative RT-PCR analysis on calvaria: SOX-9; format: cell-based, mouse; conditions: 7 days of culture, normalized to control = 1.00
Description: as §1, §3

SOX9 = assay: Western blot of chondrocyte marker SOX9 in bone marrow-derived MSCs; format: cell-based, human; conditions: 100 nM for 7 days; MSCs in chondrogenic culture medium; not detectable in control
Description: as §4, §5

TGF-β3 = assay: Quantitative RT-PCR analysis on calvaria: TGF-β3; format: cell-based, mouse; conditions: 7 days of culture, normalized to control = 1.00
Description: as §1, §3

TIMP-2 = assay: Quantitative RT-PCR analysis on calvaria: TIMP-2; format: cell-based, mouse; conditions: 7 days of culture, normalized to control = 1.00
Description: as §1, §3

BMP-2 = assay: Quantitative RT-PCR analysis on calvaria: BMP-2; format: cell-based, mouse; conditions: 7 days of culture, normalized to control = 1.00
Description: as §1, §3

TIMP-1 = assay: Quantitative RT-PCR analysis on calvaria: TIMP-1; format: cell-based, mouse; conditions: 7 days of culture, normalized to control = 1.00
Description: as §1, §3

[1] = test system: collagen type II (COL2A1); assay: Immunohistochemical analysis of collagen type II in calvaria; format: cell-based, mouse; conditions: 200 nM, FIG. 1b
Description: as §1, §2

With `CC1(C)CC[C@]2(C(=O)n3ccnc3)CC[C@]3(C)[C@H](C(=O)C=C4[C@@]5(C)C=C(C#N)C(=O)C(C)(C)[C@@H]5CC[C@]43C)[C@@H]2C1` [CDDO-Im, CDDO-Imidazolide] the “induction of chondrogenesis (metachromatic toluidine blue purple staining, proteoglycans)” value (newborn mouse calvaria) was “marked ability to induce chondrogenesis”, the “BMPRII expression (quantitative RT-PCR)” value (BMPRII; 50 nM) was 1.09 ± 0.06 and the “BMPRII expression (quantitative RT-PCR)” value (BMPRII; 200 nM) was 1.22 ± 0.11. For the same compound, the “BMPRII expression (quantitative RT-PCR)” value (BMPRII; 500 nM) was 1.46 ± 0.14, the “Smad4 expression (quantitative RT-PCR)” value (Smad4; 50 nM) was 0.96 ± 0.06 and the “Smad4 expression (quantitative RT-PCR)” value (Smad4; 200 nM) was 1.03 ± 0.09. The “Smad4 expression (quantitative RT-PCR)” value (Smad4; 500 nM) was 1.26 ± 0.09, the “Smad7 expression (quantitative RT-PCR)” value (Smad7; 50 nM) was 1.05 ± 0.07 and the “Smad7 expression (quantitative RT-PCR)” value (Smad7; 200 nM) was 1.32 ± 0.14. For the same compound, the “Smad7 expression (quantitative RT-PCR)” value (Smad7; 500 nM) was 1.78 ± 0.18, the “induction of COL2A1 (Western blot)” value (COL2A1) was “clear induction” and the “TGF-β2 expression (quantitative RT-PCR)” value (TGF-β2; 50 nM) was 1.17 ± 0.05. For the same compound, the “TGF-β2 expression (quantitative RT-PCR)” value (TGF-β2; 200 nM) was 1.15 ± 0.09, the “TGF-β2 expression (quantitative RT-PCR)” value (TGF-β2; 500 nM) was 1.17 ± 0.10 and the “Smad6 expression (quantitative RT-PCR)” value (Smad6; 50 nM) was 0.95 ± 0.05. For the same compound, the “Smad6 expression (quantitative RT-PCR)” value (Smad6; 200 nM) was 1.23 ± 0.14, the “Smad6 expression (quantitative RT-PCR)” value (Smad6; 500 nM) was 1.77 ± 0.19 and the “MMP-9 expression (quantitative RT-PCR)” value (MMP-9; 50 nM) was 0.73 ± 0.16. The “MMP-9 expression (quantitative RT-PCR)” value (MMP-9; 200 nM) was 0.44 ± 0.12, the “MMP-9 expression (quantitative RT-PCR)” value (MMP-9; 500 nM) was 0.26 ± 0.03 and the “Smad3 expression (quantitative RT-PCR)” value (Smad3; 50 nM) was 0.97 ± 0.07. The “Smad3 expression (quantitative RT-PCR)” value (Smad3; 200 nM) was 0.90 ± 0.05, the “Smad3 expression (quantitative RT-PCR)” value (Smad3; 500 nM) was 1.35 ± 0.19 and the “Col II alpha1 expression (quantitative RT-PCR)” value (shortened to “Col II alpha1 expression”) (Col II alpha1; 50 nM) was 1.45 ± 0.09. The “Col II alpha1 expression” value (Col II alpha1; 200 nM) was 1.32 ± 0.23, the “Col II alpha1 expression” value (Col II alpha1; 500 nM) was 1.72 ± 0.39 and the “induction of Aggrecan (Western blot)” value (Aggrecan) was “clear induction”. For the same compound, the “TGF-β1 expression (quantitative RT-PCR)” value (TGF-β1; 50 nM) was 0.96 ± 0.07, the “TGF-β1 expression (quantitative RT-PCR)” value (TGF-β1; 200 nM) was 1.08 ± 0.12 and the “TGF-β1 expression (quantitative RT-PCR)” value (TGF-β1; 500 nM) was 1.46 ± 0.12. The “BMP-4 expression (quantitative RT-PCR)” value (BMP-4; 50 nM) was 0.97 ± 0.05, the “BMP-4 expression (quantitative RT-PCR)” value (BMP-4; 200 nM) was 0.98 ± 0.06 and the “BMP-4 expression (quantitative RT-PCR)” value (BMP-4; 500 nM) was 1.35 ± 0.22. For the same compound, the “SOX-9 expression (quantitative RT-PCR)” value (SOX-9; 50 nM) was 1.26 ± 0.08, the “SOX-9 expression (quantitative RT-PCR)” value (SOX-9; 200 nM) was 1.33 ± 0.05 and the “SOX-9 expression (quantitative RT-PCR)” value (SOX-9; 500 nM) was 1.83 ± 0.13. For the same compound, the “induction of SOX9 (Western blot)” value (SOX9) was “clear induction”, the “TGF-β3 expression (quantitative RT-PCR)” value (TGF-β3; 50 nM) was 1.30 ± 0.07 and the “TGF-β3 expression (quantitative RT-PCR)” value (TGF-β3; 200 nM) was 1.52 ± 0.16. The “TGF-β3 expression (quantitative RT-PCR)” value (TGF-β3; 500 nM) was 1.66 ± 0.13, the “TIMP-2 expression (quantitative RT-PCR)” value (TIMP-2; 50 nM) was 1.24 ± 0.10 and the “TIMP-2 expression (quantitative RT-PCR)” value (TIMP-2; 200 nM) was 1.67 ± 0.19. For the same compound, the “TIMP-2 expression (quantitative RT-PCR)” value (TIMP-2; 500 nM) was 2.62 ± 0.29, the “BMP-2 expression (quantitative RT-PCR)” value (BMP-2; 50 nM) was 1.17 ± 0.07 and the “BMP-2 expression (quantitative RT-PCR)” value (BMP-2; 200 nM) was 1.60 ± 0.19. The “BMP-2 expression (quantitative RT-PCR)” value (BMP-2; 500 nM) was 3.14 ± 0.53, the “TIMP-1 expression (quantitative RT-PCR)” value (TIMP-1; 50 nM) was 1.43 ± 0.19 and the “TIMP-1 expression (quantitative RT-PCR)” value (TIMP-1; 200 nM) was 1.83 ± 0.18. For the same compound, the “TIMP-1 expression (quantitative RT-PCR)” value (TIMP-1; 500 nM) was 3.00 ± 0.65 and the “formation of collagen type II (COL2A1), red fluorescence” value [1] was “induce the formation of collagen type II”.
